From patent US9822114B2, “Tricyclic oxazolidinone antibiotic compounds” (Idorsia Pharmaceuticals Ltd, priority 2008, dated 2017)

Tested on: M. catarrhalis A894
Test: Minimal inhibitory concentration (MIC), microdilution method in cation-adjusted Mueller-Hinton Broth (CLSI M7-A7)
Type: cell-based
Details: Moraxella catarrhalis, strain A894
Protocol: Minimal inhibitory concentrations (MICs; mg/1) were determined in cation-adjusted Mueller-Hinton Broth by a microdilution method following the description given in “Methods for Dilution Antimicrobial Susceptibility Tests for Bacteria that Grow Aerobically”, Approved standard, 7th ed., Clinical and Laboratory Standards Institute (CLSI) Document M7-A7, Wayne, Pa., USA, 2006.

| SMILES | MIC |
| --- | --- |
| O=C1COc2ccc(N3C[C@@H](CCCNC4Cn5c(=O)ccc6ccc(F)c4c65)OC3=O)cc2N1 (mixture of isomers) [Example 12, (1RS)-9-fluoro-1-{3-[(R)-2-oxo-3-(3-oxo-3,4-dihydro-2H-benzo[1,4]oxazin-6-yl)-oxazolidin-5-yl]-propylamino}-1,2-dihydro-pyrrolo[3,2,1-ij]quinolin-4-one] | ≤ 0.031 µg/mL |
| O=C1CSc2ccc(N3C[C@@H](CCCNC4Cn5c(=O)ccc6ccc(F)c4c65)OC3=O)cc2N1 (mixture of isomers) [Example 13, (1RS)-9-fluoro-1-{3-[(R)-2-oxo-3-(3-oxo-3,4-dihydro-2H-benzo[1,4]thiazin-6-yl)-oxazolidin-5-yl]-propylamino}-1,2-dihydro-pyrrolo[3,2,1-ij]quinolin-4-one] | ≤ 0.031 µg/mL |
| O=C1CSc2ccc(N3C[C@H](CNCCC4Cn5c(=O)ccc6ncc(F)c4c65)OC3=O)cc2N1 (mixture of isomers) [Example 16, (4RS)-3-fluoro-4-(2-{[(S)-2-oxo-3-(3-oxo-3,4-dihydro-2H-benzo[1,4]thiazin-6-yl)-oxazolidin-5-ylmethyl]-amino}-ethyl)-4,5-dihydro-pyrrolo[3,2,1-de][1,5]naphthyridin-7-one] | ≤ 0.031 µg/mL |
| O=C1CSc2ccc(N3C[C@@H](CNCCC4Cn5c(=O)ccc6ncc(F)c4c65)OC3=O)cc2N1 (mixture of isomers) [Example 17, (4RS)-3-fluoro-4-(2-{[(R)-2-oxo-3-(3-oxo-3,4-dihydro-2H-benzo[1,4]thiazin-6-yl)-oxazolidin-5-ylmethyl]-amino}-ethyl)-4,5-dihydro-pyrrolo[3,2,1-de][1,5]naphthyridin-7-one] | ≤ 0.031 µg/mL |
| O=C1CSc2ccc(N3C[C@@H](CCCNC4Cn5c(=O)cnc6cccc4c65)OC3=O)cc2N1 (mixture of isomers) [Example 20, (6RS)-6-{3-[(R)-2-oxo-3-(3-oxo-3,4-dihydro-2H-benzo[1,4]thiazin-6-yl)-oxazolidin-5-yl]-propylamino}-5,6-dihydro-pyrrolo[1,2,3-de]quinoxalin-3-one] | ≤ 0.031 µg/mL |
| O=C1COc2ccc(N3C[C@@H](CCCNC4Cn5c(=O)cnc6cccc4c65)OC3=O)cc2N1 (mixture of isomers) [Example 21, (6RS)-6-{3-[(R)-2-oxo-3-(3-oxo-3,4-dihydro-2H-benzo[1,4]oxazin-6-yl)-oxazolidin-5-yl]-propylamino}-5,6-dihydro-pyrrolo[1,2,3-de]quinoxalin-3-one] | ≤ 0.031 µg/mL |
| O=C1CSc2ccc(N3C[C@H](CNCCC4CN5C(=O)CCc6ccc(F)c4c65)OC3=O)cc2N1 (mixture of isomers) [Example 22, (1RS)-9-fluoro-1-(2-{[(S)-2-oxo-3-(3-oxo-3,4-dihydro-2H-benzo[1,4]thiazin-6-yl)-oxazolidin-5-ylmethyl]-amino}-ethyl)-1,2,5,6-tetrahydro-pyrrolo[3,2,1-ij]quinolin-4-one] | ≤ 0.031 µg/mL |
| O=C1CSc2ccc(N3C[C@@H](CCNCC4CN5C(=O)CCc6ccc(F)c4c65)OC3=O)cc2N1 (mixture of isomers) [Example 23, (1RS)-9-fluoro-1-({2-[(R)-2-oxo-3-(3-oxo-3,4-dihydro-2H-benzo[1,4]thiazin-6-yl)-oxazolidin-5-yl]-ethylamino}-methyl)-1,2,5,6-tetrahydro-pyrrolo[3,2,1-ij]quinolin-4-one] | ≤ 0.031 µg/mL |
| O=C1CSc2ccc(N3C[C@@H](CNCCC4CN5C(=O)CCc6ccc(F)c4c65)OC3=O)cc2N1 (mixture of isomers) [Example 24, (1RS)-9-fluoro-1-(2-{[(R)-2-oxo-3-(3-oxo-3,4-dihydro-2H-benzo[1,4]thiazin-6-yl)-oxazolidin-5-ylmethyl]-amino}-ethyl)-1,2,5,6-tetrahydro-pyrrolo[3,2,1-ij]quinolin-4-one] | ≤ 0.031 µg/mL |
| O=C1COc2ccc(N3C[C@@H](CNCCC4CN5C(=O)CCc6ccc(F)c4c65)OC3=O)cc2N1 (mixture of isomers) [Example 25, (1RS)-9-fluoro-1-(2-{[(R)-2-oxo-3-(3-oxo-3,4-dihydro-2H-benzo[1,4]oxazin-6-yl)-oxazolidin-5-ylmethyl]-amino}-ethyl)-1,2,5,6-tetrahydro-pyrrolo[3,2,1-ij]quinolin-4-one] | ≤ 0.031 µg/mL |
| O=C1O[C@H](CNCCC2CN3C(=O)CCc4ccc(F)c2c43)CN1c1ccc2c(c1)OCCO2 (mixture of isomers) [Example 26, (1RS)-1-(2-{[(R)-3-(2,3-dihydro-benzo[1,4]dioxin-6-yl)-2-oxo-oxazolidin-5-ylmethyl]-amino}-ethyl)-9-fluoro-1,2,5,6-tetrahydro-pyrrolo[3,2,1-ij]quinolin-4-one] | 0.25 µg/mL |
| Cc1ccc(N2C[C@@H](CNCCC3CN4C(=O)CCc5ccc(F)c3c54)OC2=O)cc1F (mixture of isomers) [Example 27, (1RS)-9-fluoro-1-(2-{[(R)-3-(3-fluoro-4-methyl-phenyl)-2-oxo-oxazolidin-5-ylmethyl]-amino}-ethyl)-1,2,5,6-tetrahydro-pyrrolo[3,2,1-ij]quinolin-4-one] | 0.5 µg/mL |
| O=C1CSc2ccc(N3C[C@@H](CCNCC4Cn5c(=O)ccc6ncc(F)c4c65)OC3=O)cc2N1 (mixture of isomers) [Example 28, (4RS)-3-fluoro-4-({2-[(R)-2-oxo-3-(3-oxo-3,4-dihydro-2H-benzo[1,4]thiazin-6-yl)-oxazolidin-5-yl]-ethylamino}-methyl)-4,5-dihydro-pyrrolo[3,2,1-de][1,5]naphthyridin-7-one] | ≤ 0.031 µg/mL |
| O=C1CSc2ccc(N3C[C@H](CCNCC4CN5C(=O)CCc6ccc(F)c4c65)OC3=O)cc2N1 (mixture of isomers) [Example 29, (1RS)-9-fluoro-1-({2-[(S)-2-oxo-3-(3-oxo-3,4-dihydro-2H-benzo[1,4]thiazin-6-yl)-oxazolidin-5-yl]-ethylamino}-methyl)-1,2,5,6-tetrahydro-pyrrolo[3,2,1-ij]quinolin-4-one] | ≤ 0.031 µg/mL |
| O=C1CSc2ccc(N3C[C@H](CNCC4Cn5c(=O)ccc6ccc(F)c4c65)OC3=O)cc2N1 (mixture of isomers) [Example 30, (1RS)-9-fluoro-1-({[(S)-2-oxo-3-(3-oxo-3,4-dihydro-2H-benzo[1,4]thiazin-6-yl)-oxazolidin-5-ylmethyl]-amino}-methyl)-1,2-dihydro-pyrrolo[3,2,1-ij]quinolin-4-one] | 0.031 µg/mL |
| O=C1O[C@H](CNCC2Cn3c(=O)ccc4ccc(F)c2c43)CN1c1ccc2c(c1)OCCO2 (mixture of isomers) [Example 31, (1RS)-1-({[(R)-3-(2,3-dihydro-benzo[1,4]dioxin-6-yl)-2-oxo-oxazolidin-5-ylmethyl]-amino}-methyl)-9-fluoro-1,2-dihydro-pyrrolo[3,2,1-ij]quinolin-4-one] | 16 µg/mL |
| O=C1COc2ccc(N3C[C@@H](CNCC4Cn5c(=O)ccc6ccc(F)c4c65)OC3=O)cc2N1 (mixture of isomers) [Example 32, (1RS)-9-fluoro-1-({[(R)-2-oxo-3-(3-oxo-3,4-dihydro-2H-benzo[1,4]oxazin-6-yl)-oxazolidin-5-ylmethyl]-amino}-methyl)-1,2-dihydro-pyrrolo[3,2,1-ij]quinolin-4-one] | 0.031 µg/mL |
| Cc1ccc(N2C[C@@H](CNCC3Cn4c(=O)ccc5ccc(F)c3c54)OC2=O)cc1F (mixture of isomers) [Example 33, (1RS)-9-fluoro-1-({[(R)-3-(3-fluoro-4-methyl-phenyl)-2-oxo-oxazolidin-5-ylmethyl]-amino}-methyl)-1,2-dihydro-pyrrolo[3,2,1-ij]quinolin-4-one] | 16 µg/mL |
| O=C1CSc2ccc(N3C[C@@H](CCNCC4Cn5c(=O)ccc6nccc4c65)OC3=O)cc2N1 (mixture of isomers) [Example 34, (RS)-4-({2-[(R)-2-oxo-3-(3-oxo-3,4-dihydro-2H-benzo[1,4]thiazin-6-yl)-oxazolidin-5-yl]-ethylamino}-methyl)-4,5-dihydro-pyrrolo[3,2,1-de][1,5]naphthyridin-7-one] | ≤ 0.031 µg/mL |
| O=C1CSc2ccc(N3C[C@@H](CCCNC4Cn5c(=O)ccc6cccc4c65)OC3=O)cc2N1 (mixture of isomers) [Example 35, (RS)-1-{3-[(R)-2-oxo-3-(3-oxo-3,4-dihydro-2H-benzo[1,4]thiazin-6-yl)-oxazolidin-5-yl]-propylamino}-1,2-dihydro-pyrrolo[3,2,1-ij]quinolin-4-one] | ≤ 0.031 µg/mL |
| CCCc1ccc(N2C[C@@H](CNCC3Cn4c(=O)ccc5ccc(F)c3c54)OC2=O)cc1 (mixture of isomers) [Example 37, (RS)-9-fluoro-1-({[(R)-2-oxo-3-(4-propyl-phenyl)-oxazolidin-5-ylmethyl]-amino}-methyl)-1,2-dihydro-pyrrolo[3,2,1-ij]quinolin-4-one] | 1 µg/mL |
| CCCCc1ccc(N2C[C@@H](CNCC3Cn4c(=O)ccc5ccc(F)c3c54)OC2=O)cc1 (mixture of isomers) [Example 38, (RS)-1-({[(R)-3-(4-butyl-phenyl)-2-oxo-oxazolidin-5-ylmethyl]-amino}-methyl)-9-fluoro-1,2-dihydro-pyrrolo[3,2,1-ij]quinolin-4-one] | 16 µg/mL |
| CCOc1ccc(N2C[C@@H](CCNCC3Cn4c(=O)ccc5ccc(F)c3c54)OC2=O)cc1 (mixture of isomers) [Example 44, (RS)-1-({2-[(R)-3-(4-ethoxy-phenyl)-2-oxo-oxazolidin-5-yl]-ethylamino}-methyl)-9-fluoro-1,2-dihydro-pyrrolo[3,2,1-ij]quinolin-4-one] | 0.125 µg/mL |
| CCCc1ccc(N2C[C@@H](CCNCC3Cn4c(=O)ccc5ccc(F)c3c54)OC2=O)cc1 (mixture of isomers) [Example 45, (RS)-9-fluoro-1-({2-[(R)-2-oxo-3-(4-propyl-phenyl)-oxazolidin-5-yl]-ethylamino}-methyl)-1,2-dihydro-pyrrolo[3,2,1-ij]quinolin-4-one] | 0.063 µg/mL |
| O=C1O[C@H](CCNCC2Cn3c(=O)ccc4ccc(F)c2c43)CN1c1ccc2c(c1)OCCO2 (mixture of isomers) [Example 46, (RS)-1-({2-[(R)-3-(2,3-dihydro-benzo[1,4]dioxin-6-yl)-2-oxo-oxazolidin-5-yl]-ethylamino}-methyl)-9-fluoro-1,2-dihydro-pyrrolo[3,2,1-ij]quinolin-4-one] | ≤ 0.031 µg/mL |
